Among the data in ChEMBL document CHEMBL4482315, “In vivo imaging of sulfotransferases” (2013) are Activity values, retold here.

Structures are written as SMILES. The source made the active and inactive calls. No cut-off for these calls is given here.

The experiment concerns Rattus norvegicus. Briefly: In-vivo substrate activity at SULT1A in brain of Sprague-Dawley rat with renal hypertension a at 0.5 to 2 mCi dosed via bolus injection measured after 60 mins post dose by microPET imaging method. The format is functional, organism-based. As to conditions: tested as the 18F-labelled form.

`O=[N+]([O-])c1cc(O)ccc1F`: the outcome was Active.
